Assay results: patent US9949983B2, “Fused benzazepines for treatment of stuttering” (PSYADON PHARMACEUTICALS, INC., priority 2013, dated 2018)
Read-outs that look alike come from different tables or passages of the source.

Experiments:
[1] = cited from earlier work
stuttering = settings: cited from earlier work
D1 receptors = D1 receptors (Homo sapiens, UniProt P21728); test: In vitro cAMP second messenger studies (adenylate cyclase); type: biochemical
Method: (§1) Activation of D1 receptors by dopamine and similar agonists stimulates the production of cyclic AMP (cAMP) via activation of adenylate cyclase. […] To ensure that there was no species specificity to the receptor binding profile, ecopipam's potency and selectivity were evaluated using cloned human receptors. […] Positron emission tomography (PET) studies using radiolabeled ecopipam have been conducted in healthy volunteers (Karlsson et al., Psychopharmacol., 121:300-308, 1995).

D1 receptor = target: T1, D1 receptor (Rattus norvegicus, UniProt P18901); settings: rats, selective D1-agonist discriminative stimulus; cited from earlier work
T1 construct: In vivo studies on dopamine-agonist-induced behaviors; from tissue; host or cells: living rats (in vivo)

D1/D5 receptors = settings: rat brain homogenates, at low concentrations; cited from earlier work
[2] = Open-label clinical study of safety, tolerability and activity in adult patients with Tourette's Syndrome; type: in vivo, human; settings: adult TS patients, 50 mg/day Weeks 1-2, 100 mg/day Weeks 3-8
Method: A clinical program was carried out to test the safety, tolerability, and activity of ecopipam in adult patients with Tourette's Syndrome. A multicenter, open-label, nonrandomized study in 25 to 30 subjects was conducted to assess the activity and safety of ecopipam in subjects with TS. […] Assessment was performed at each visit. A follow-up visit was conducted via telephone at Week 10 to record any adverse events. Ecopipam was administered daily before bedtime at 50 mg/day for Week 1 and Week 2 and at 100 mg/day for Weeks 3-8. This treatment regimen is within the scope of the present invention; the compositions and various formulations described herein can be administered as described in this Example. The demographics of the study population were as follows: eighty three percent of the subjects were male (15 out of 18); fifteen were Caucasian, two were African-American, and one was an Asian/Pacific Islander. All subjects reported at least one adverse event (AE). […] These side effects are similar to those seen in other studies with ecopipam and were not unexpected.

dopamine D1 receptors = dopamine D1 receptors (Homo sapiens, UniProt P21728); settings: radiolabeled ecopipam, healthy volunteers; cited from earlier work
hD1/hD5 receptors = test: Binding to cloned human receptors
Method: as §1

[3] = known D2 antagonists, literature reports

Sequence of dopamine D1 receptors (P21728 whole entry): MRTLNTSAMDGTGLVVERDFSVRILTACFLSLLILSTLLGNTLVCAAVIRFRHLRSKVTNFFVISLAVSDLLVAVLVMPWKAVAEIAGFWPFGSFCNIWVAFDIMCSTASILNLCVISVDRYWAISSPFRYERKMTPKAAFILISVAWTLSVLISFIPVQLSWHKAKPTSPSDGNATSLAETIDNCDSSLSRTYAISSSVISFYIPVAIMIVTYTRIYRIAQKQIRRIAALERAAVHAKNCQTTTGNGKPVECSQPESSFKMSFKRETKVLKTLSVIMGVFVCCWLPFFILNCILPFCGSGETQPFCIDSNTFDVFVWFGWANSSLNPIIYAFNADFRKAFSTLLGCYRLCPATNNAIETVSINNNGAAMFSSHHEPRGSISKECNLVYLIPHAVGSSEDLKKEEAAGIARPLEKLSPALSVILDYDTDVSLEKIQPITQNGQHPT
Sequence of D1 receptors (P21728 whole entry): as above
T1 sequence (P18901 whole entry): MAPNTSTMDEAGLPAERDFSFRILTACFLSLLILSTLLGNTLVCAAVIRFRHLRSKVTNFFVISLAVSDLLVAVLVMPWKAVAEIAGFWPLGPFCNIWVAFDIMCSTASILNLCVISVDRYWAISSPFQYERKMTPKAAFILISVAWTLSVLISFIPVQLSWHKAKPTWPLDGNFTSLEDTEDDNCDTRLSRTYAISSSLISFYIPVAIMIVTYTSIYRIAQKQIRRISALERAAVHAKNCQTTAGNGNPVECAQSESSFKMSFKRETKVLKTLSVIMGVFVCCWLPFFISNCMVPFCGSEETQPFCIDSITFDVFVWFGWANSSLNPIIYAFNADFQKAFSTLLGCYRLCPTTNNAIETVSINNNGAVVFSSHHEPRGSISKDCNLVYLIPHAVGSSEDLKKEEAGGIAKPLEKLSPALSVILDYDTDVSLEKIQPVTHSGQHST

For CN1CCc2cc(Cl)c(O)cc2[C@H]2c3ccccc3CC[C@@H]21 [Q=CH2, n=1, 7b(R): 7a(S)(−), X=Cl, Y=OH, 6,7,7a,8,9,13b-hexahydro-3-chloro-2-hydroxy-7-methyl-5H-benzo[d]naphtho[2,1-b]azepine], the “CAR (MED)” value ([1]; po) is listed as 30 (po).

In the case of CN1CCc2cc(Cl)c(O)cc2[C@@H]2c3ccccc3CC[C@H]21 [Q=CH2, n=1, 7b(S):7a(R)(+), X=Cl, Y=OH, 6,7,7a,8,9,13b-hexahydro-3-chloro-2-hydroxy-7-methyl-5H-benzo[d]naphtho[2,1-b]azepine], the “CAR (MED)” value ([1]; po) is listed as >30 (po).

In the case of COc1cc2c(cc1O)C1c3ccccc3CCC1N(C)CC2 (stereo not drawn) [Q=CH2, n=1, trans, X=CH3O, Y=OH, 6,7,7a,8,9,13b-hexahydro-2-hydroxy-3-methoxy-7-methyl-5H-benzo[d]naphtho[2,1-b]azepine], the “CAR (MED)” value ([1]; po) is listed as 30 and the “CAR (MED)” value ([1]; sc) is listed as 0.3-1.

For CN1CCc2cc(Cl)c(N)cc2C2c3ccccc3CCC21 (stereo not drawn) [Q=CH2, n=1, trans, X=Cl, Y=NH2, 6,7,7a,8,9,13b-hexahydro-2-amino-3-chloro-7-methyl-5H-benzo[d]naphtho[2,1-b]azepine], the “CAR (MED)” value ([1]; po) is given as 3 (po).

In the case of CN1CCc2cc(Cl)c(O)cc2C2c3ccccc3CCC21 (stereo not drawn) [Q=CH2, n=1, trans, X=Cl, Y=OH, 6,7,7a,8,9,13b-hexahydro-3-chloro-2-hydroxy-7-methyl-5H-benzo[d]naphtho[2,1-b]azepine], the “CAR (MED)” value ([1]; po) is listed as 30 and the “CAR (MED)” value ([1]; sc) is listed as 0.3.

In the case of COc1cc2c(cc1O)C1c3ccccc3CCCC1N(C)CC2 (stereo not drawn) [Q=CH2, n=2, trans, X=CH3O, Y=OH, 2-hydroxy-3-methoxy-7-methyl-5,6,7,7a,8,9,10,14b-octahydro-benzo[d]benzo[3,4]cyclo-hepta[1,2-b]azepine], the “CAR (MED)” value ([1]; sc) is listed as 10 (sc).

For COc1cc2c(cc1O)CCN(C)C1CCCc3ccccc3C21 (stereo not drawn) [Q=CH2, n=2, trans, X=HO, Y=CH3O, 3-hydroxy-2-methoxy-7-methyl-5,6,7,7a,8,9,10,14b-octahydro-benzo[d]benzo[3,4]cyclo-hepta[1,2-b]azepine], the “CAR (MED)” value ([1]; sc) is given as 10 (sc).

In the case of CN1CC2c3ccccc3Oc3ccc(Cl)cc3C2C1 (stereo not shown) [asenapine], the “reported effect on stuttering” value (stuttering; [3]) is given as “induce stuttering”.

In the case of CN1CCc2cc(Cl)c(O)cc2[C@H]2c3ccccc3CC[C@@H]21 [ecopipam, (−)-trans-6,7,7a,8,9,13b-hexahydro-3-chloro-2-hydroxy-N-methyl-5H-benzo [d]-naphtho-[2,1-b]azepine], the “action on cAMP second messenger” value (D1 receptors) is listed as “antagonist”, the “action on dopamine-agonist-induced behaviors” value (D1 receptor) is listed as “selective D1 antagonist” and the “affinity for D1/D5 receptors” value (D1/D5 receptors) is listed as “high affinity”. The “patients reporting AEs rated as severe” value ([2]; 18 subjects) was “Four”, the “subjects reporting at least one adverse event” value ([2]; 18 subjects) was “All subjects” and the “AEs rated as severe (kinds)” value [2] was “sedation, insomnia, decreased appetite, hypersensitivity, cold sweat, and feeling jittery”. The “AEs rated mild to moderate reported in more than three subjects” value [2] was “fatigue, insomnia, nausea, sedation, headache, restlessness, anxiety, muscle twitching, dysphoria, and sleeplessness”, the “changes in lab tests” value [2] was “none were of clinical significance” and the “changes in vital signs” value [2] was “no clinically significant changes in vital signs”. For the same compound, the serious adverse events [2] was “no serious adverse events”, the “binding in human brain (PET)” value (dopamine D1 receptors) was “specific binding in the human brain” and the “affinity for hD1/hD5 receptors” value (hD1/hD5 receptors) was “high affinity”.

For COC(=O)C(c1ccccc1)C1CCCCN1 (stereo not shown) [methylphenidate], the “reported effect on stuttering” value (stuttering; D2-preferring dopamine agonist, literature report) is given as “relieve stuttering”.

For Cc1cc2c(s1)Nc1ccccc1N=C2N1CCN(C)CC1 [olanzapine], the “reported effect on stuttering” value (stuttering; [3]) is listed as “induce stuttering”.

For Cc1nc2n(c(=O)c1CCN1CCC(c3noc4cc(F)ccc34)CC1)CCCC2 [risperidone], the “reported effect on stuttering” value (stuttering; [3]) is given as “induce stuttering”.
